The target in series [1] is T1, glycine binding pocket of the NMDA receptor (Rattus norvegicus, UniProt P35439).
T1 construct: For isolation of the cell membranes, the cortices are homogenized; from tissue; host or cells: rat cerebral cortex membranes (male Sprague-Dawley)
Put plainly: [3H]MDL-105,519 displacement studies (rat cortical membranes). To be noted: displacement of 2 nM [3H]-MDL-105,519, rat cortical membranes; read-out: NMDA-MDL 105519-r-CTX - IC50.

For series [2], the target named is NMDA receptor glycine B site (Rattus norvegicus, UniProt P35439). Nature of the series: Calcium FLIPR studies, rat cortical neurons (NMDA/D-Serine induced intracellular calcium). The format is cell-based. More on the design: Primary neurons are prepared from cortices of embryonal rats at day 17 of pregnancy; endogenous in cells; host or cells: primary rat cortical neurons (E17, 11-13 DIV). To be noted: rat cortical neurons; stimulation with 30 μM NMDA and 1 μM D-Serine; antagonist pre-incubated 10 min; read-out: NMDA-FLIPR-rCTX-NAM - IC50. How it is done: Antagonistic potencies of the test compounds are functionally evaluated using electrophysiological whole cell patch-clamp recordings and/or fluorometric intracellular Ca^2+-imaging (FLIPR) screens.
Sprague-Dawley rat embryos (E 17) are decapitated and neocortices are dissected, trypsinized and carefully triturated. The cell suspension is plated on poly-D-lysine pre-coated 96-well Plates (Greiner, Frickenhausen, Germany) at a cell density of 55.000 cells/well. The neurons are cultivated in Neurobasal media containing B27-Supplement and […] L-Glutamine (Biochrom) at 37° C. in a humidified atmosphere of 5% CO2/95% air. Medium is exchanged completely at day 4 and to 50% on day 7. At the time of experiments neurons are 11-13 days in vitro.
The increase of intracellular calcium after stimulation with 30 μM NMDA and 1 μM D-Serine is measured using the fluorometric imaging plate reader (FLIPR) and the Calcium-4-Kit (both Molecular Devices, Ismaning, Germany). Prior to addition of agonist or antagonist (5 different concentrations, n=5) the medium is aspirated and cells are washed once before loading with 150 μL of loading buffer (1 h at room temperature), consisting of Ca-4 sensitive dye reconstituted in extracellular bath solution, pH 7.3. Subsequently, plates are transferred to FLIPR to detect increases in intracellular calcium after the addition of agonist, measured as relative fluorescence units (RFU). Antagonists are pre-incubated with the cells for 10 min at room temperature before the addition of the agonist and co-agonist.
The fluorescence signal increase after addition of agonist reflects the increase of intracellular calcium. Inconsistencies in the amount of cells per well are normalised by using the spatial uniformity correction of the FLIPR software (Screenworks, Molecular Devices). The mean of replicated temporal data (n=5) is calculated and used for graphical representation. For the evaluation of the antagonistic potency, the calcium changes in response to different concentrations of antagonist are determined using an area under the curve (AUC) calculation. All responses (RFU-values) are determined as percentage of control (=maximum response at 30 μM NMDA and 1 μM D-Serine). IC50 values are calculated according the four parameter logistic equation using GraFit (Erithacus Software).
On the technique in general: A change in cytosolic calcium serves as a functional read-out for many receptors and channels.

As to `N#Cc1ccccc1NC(=O)COc1cc(C(=O)O)cc2cc(Cl)cc(Cl)c12` [Example 82, 5,7-Dichloro-4-[(2-cyano-phenylcarbamoyl)-methoxy]-naphthalene-2-carboxylic acid], the melting point is above 250 °C. In series [1], the IC50 came to 440 nM.
Consider `O=C(O)COc1ccc(NC(=O)COc2cc(C(=O)O)cc3cc(Cl)cc(Cl)c23)c(OCC(=O)O)c1` [Example 83, 4-[(2,4-Bis-carboxymethoxy-phenylcarbamoyl)-methoxy]-5,7-dichloro-naphthalene-2-carboxylic acid], for which the melting point is > 220 °C (dec.). Besides, the IC50 in series [1] stood at 252 nM. In addition, the IC50 in series [2] is 1320 nM.
On to `O=C(COc1cc(C(=O)O)cc2cc(Cl)cc(Cl)c12)Nc1ccccc1-c1nnn[nH]1` [Example 85, 5,7-Dichloro-4-{[2-(1H-tetrazol-5-yl)-phenylcarbamoyl]-methoxy}-naphthalene-2-carboxylic acid], for which the melting point lay in the range of 247 to 248 °C. For the same compound, the IC50 in series [1] worked out at 233 nM. Moreover, the IC50 in series [2] amounted to 930 nM.
As for `O=C(O)COc1ccc(CO)cc1NC(=O)COc1cc(C(=O)O)cc2cc(Cl)cc(Cl)c12` [Example 94, 4-[(2-Carboxymethoxy-5-hydroxymethyl-phenylcarbamoyl)-methoxy]-5,7-dichloro-naphthalene-2-carboxylic acid], the melting point was 185 to 187 °C (dec.). Moreover, in series [1], the IC50 came to 150 nM. For the same compound, the IC50 in series [2] stood at 1050 nM.
For `O=C(O)CCc1cccc(NC(=O)COc2cc(C(=O)O)cc3cc(Cl)cc(Cl)c23)c1` [Example 96, 4-{[3-(2-Carboxy-ethyl)-phenylcarbamoyl]-methoxy}-5,7-dichloro-naphthalene-2-carboxylic acid], in that order: > 230 °C (dec.), 393 nM and 5820 nM.
With `O=C(COc1cc(C(=O)O)cc2cc(Cl)cc(Cl)c12)NCc1ccccn1` [Example 103, 5,7-Dichloro-4-{[(pyridin-2-ylmethyl)-carbamoyl]-methoxy}-naphthalene-2-carboxylic acid], the melting point was > 240 °C (dec.). In addition, the IC50 in series [1] is 430 nM. The IC50 in series [2] stood at 8550 nM.
`NC(=O)c1cccc(NC(=O)COc2cc(C(=O)O)cc3cc(Cl)cc(Cl)c23)c1` [Example 113, 4-[(3-Carbamoyl-phenylcarbamoyl)-methoxy]-5,7-dichloro-naphthalene-2-carboxylic acid]: the melting point is above 250 °C. In series [1], the IC50 came out at 284 nM.
Compound `O=C(COc1cc(C(=O)O)cc2cc(Cl)cc(Cl)c12)NCc1ccc(Cc2nnn[nH]2)cc1` [Example 120, 5,7-Dichloro-4-{[4-(1H-tetrazol-5-ylmethyl)-benzylcarbamoyl]-methoxy}-naphthalene-2-carboxylic acid] showed a melting point of 247 to 248 °C.
Compound `O=C(O)COc1cc(CO)ccc1NC(=O)COc1cc(C(=O)O)cc2cc(Cl)cc(Cl)c12` [Example 122, 4-[(2-Carboxymethoxy-4-hydroxymethyl-phenylcarbamoyl)-methoxy]-5,7-dichloro-naphthalene-2-carboxylic acid] returned a melting point of 244 to 245 °C.
As for `O=C(COc1cc(C(=O)O)cc2cc(Cl)cc(Cl)c12)NCc1ccc(OCc2nnn[nH]2)cc1` [Example 126, 5,7-Dichloro-4-{[4-(1H-tetrazol-5-ylmethoxy)-benzylcarbamoyl]-methoxy}-naphthalene-2-carboxylic acid], the melting point is > 236 °C (dec.).
In turn, `O=C(COc1cc(C(=O)O)cc2cc(Cl)cc(Cl)c12)Nc1cccc(OCc2nnn[nH]2)c1OCc1nnn[nH]1` [Example 128, 4-{[2,3-Bis-(1H-tetrazol-5-ylmethoxy)-phenylcarbamoyl]-methoxy}-5,7-dichloro-naphthalene-2-carboxylic acid] registered a melting point of 246 to 247 °C. Besides, the IC50 in series [1] amounted to 1370 nM.
Turning to `COCC(Oc1cc(C(=O)O)cc2cc(Cl)cc(Cl)c12)C(=O)Nc1ccccc1OCC(=O)O` (stereo not shown) [Example 131, 4-[1-(2-Carboxymethoxy-phenylcarbamoyl)-2-methoxy-ethoxy]-5,7-dichloro-naphthalene-2-carboxylic acid], the melting point lay in the range of 224 to 225 °C.
Compound `CN1CCc2sc(NC(=O)COc3cc(C(=O)O)cc4cc(Cl)cc(Cl)c34)nc2C1` [Example 132, 5,7-Dichloro-4-[(5-methyl-4,5,6,7-tetrahydro-thiazolo[4,5-c]pyridin-2-ylcarbamoyl)-methoxy]-naphthalene-2-carboxylic acid] yielded a melting point of 242 to 243 °C.
`Cc1cnc(NC(=O)COc2cc(C(=O)O)cc3cc(Cl)cc(Cl)c23)s1` [Example 133, 5,7-Dichloro-4-[(5-methyl-thiazol-2-ylcarbamoyl)-methoxy]-naphthalene-2-carboxylic acid] showed a melting point above 250 °C.
Regarding `O=C(COc1ccccc1NC(=O)COc1cc(C(=O)O)cc2cc(Cl)cc(Cl)c12)NCCO` [Example 134, 5,7-Dichloro-4-({2-[(2-hydroxy-ethylcarbamoyl)-methoxy]-phenylcarbamoyl}-methoxy)-naphthalene-2-carboxylic acid], the melting point is 217 to 218 °C.
Consider `Cc1nc(NC(=O)COc2cc(C(=O)O)cc3cc(Cl)cc(Cl)c23)sc1C` [Example 135, 5,7-Dichloro-4-[(4,5-dimethyl-thiazol-2-ylcarbamoyl)-methoxy]-naphthalene-2-carboxylic acid], for which the melting point was above 250 °C.
The same measure, in the same setting: under `NC(=O)c1[nH]cnc1NC(=O)COc1cc(C(=O)O)cc2cc(Cl)cc(Cl)c12` [Example 136, 4-[(5-Carbamoyl-1H-imidazol-4-ylcarbamoyl)-methoxy]-5,7-dichloro-naphthalene-2-carboxylic acid] stands above 250 °C; under `N#CCc1ccccc1NC(=O)COc1cc(C(=O)O)cc2cc(Cl)cc(Cl)c12` [Example 137, 5,7-Dichloro-4-[(2-cyanomethyl-phenylcarbamoyl)-methoxy]-naphthalene-2-carboxylic acid], 246 to 247 °C.

What is called melting point is the temperature of the solid-liquid transition. The IC50 is the concentration needed to halve the response being measured.

The record behind these values is patent publication US20120220577A1, “GLYCINE B ANTAGONISTS” (Merz Pharma GmbH & Co KgaA, priority 2009, published 2012).
